Results as given in patent US10316028B2, “Orexin receptor antagonists” (Heptares Therapeutics Limited, priority 2012, dated 2019).
Read-outs that look alike come from different tables or passages of the source.

Assays:
human Orexin-2 receptor = biological target: T1, human Orexin-2 receptor (Homo sapiens, UniProt O43614); experiment: 3H-EMPA radioligand binding assay; details: 3H-EMPA displacement, membranes of HEK293 cells transfected with human Orexin-2 receptor; KI by Cheng-Prussoff; read-out: OX2 pKi ave (converted)
T1 construct: expressed in transfected cells; host or cells: HEK293 cells (transient transfection, Genejuice); membranes
T1 sequence (O43614 1-444): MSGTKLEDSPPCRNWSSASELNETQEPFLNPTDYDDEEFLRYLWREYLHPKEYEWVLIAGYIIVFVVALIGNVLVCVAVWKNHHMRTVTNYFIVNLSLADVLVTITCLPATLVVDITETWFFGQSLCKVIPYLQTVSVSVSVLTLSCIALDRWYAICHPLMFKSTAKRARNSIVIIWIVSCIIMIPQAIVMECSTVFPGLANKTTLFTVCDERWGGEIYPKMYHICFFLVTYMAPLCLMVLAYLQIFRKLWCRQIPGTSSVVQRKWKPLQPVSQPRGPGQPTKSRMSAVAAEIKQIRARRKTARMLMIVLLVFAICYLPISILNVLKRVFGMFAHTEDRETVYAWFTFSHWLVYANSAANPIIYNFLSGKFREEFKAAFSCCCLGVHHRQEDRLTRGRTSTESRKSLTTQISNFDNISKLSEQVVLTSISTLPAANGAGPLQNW
Summary of the method: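 Membranes from HEK293 cells transiently transfected with human orexin-2 receptor cDNA, assayed with [3H]EMPA. Bound ligand collected on PEI-treated GF/B filters and counted by scintillation; IC50 from inhibition curves, Ki by Cheng-Prusoff.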

[1] = biological target: T2, cortical orexin-2 receptors (Rattus norvegicus, UniProt P56719); experiment: Ex vivo orexin-2 receptor occupancy; format: in vivo; details: for ED50: po
T2 construct: from tissue; host or cells: rat brain cortex sections (Sprague Dawley)
T2 sequence (P56719 1-460): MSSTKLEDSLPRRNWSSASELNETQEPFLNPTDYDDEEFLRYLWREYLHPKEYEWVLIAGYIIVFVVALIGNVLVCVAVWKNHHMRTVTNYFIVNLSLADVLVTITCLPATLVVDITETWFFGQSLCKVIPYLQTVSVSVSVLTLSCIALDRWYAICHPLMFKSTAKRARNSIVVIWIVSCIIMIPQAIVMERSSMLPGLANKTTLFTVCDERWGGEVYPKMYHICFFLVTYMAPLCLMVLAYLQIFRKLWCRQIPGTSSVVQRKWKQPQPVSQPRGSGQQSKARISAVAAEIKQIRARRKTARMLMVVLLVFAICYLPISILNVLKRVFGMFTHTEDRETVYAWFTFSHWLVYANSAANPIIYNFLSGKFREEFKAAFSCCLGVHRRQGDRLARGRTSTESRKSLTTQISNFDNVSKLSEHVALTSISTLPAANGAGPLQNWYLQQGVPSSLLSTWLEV
Experimental: Ex Vivo Orexin-2 Receptor Occupancy
Male Sprague Dawley rats were dosed orally with either vehicle, example 145, (0.3-10 mg/kg po) or example 100, (1 mg/kg, po). Vehicle for example 145 was 90% PEG400/10% Tween-80; for example 100 10% DMAC+10% Solutol+80% (10% HPβCD in water). 1 h post-dose, animals were sacrificed and brains removed. A coronal block containing the cortex was rapidly frozen in isopentane for sectioning and autoradiography. 20 μm thick sections were mounted onto slides and incubated with [^3H]EMPA (total binding) or [^3H]EMPA and 1 μM TCS OX2 29 (non-specific binding) for 20 min at rt. Binding was terminated by aspiration and washing with ice-cold assay buffer and allowed to air dry. Levels of bound radioactivity in the sections were determined using a beta imager over a 16 h period. Occupancy was determined as mean specific binding with the vehicle treated control taken as 100%.

rat CT18 sleep model = experiment: Rat telemetered sleep study (rat CT18 sleep model); format: in vivo; details: male CD rats
Experimental: Rat Telemetered Sleep Study
Example 100 was assessed for activity in a rat CT18 sleep model. Adult male CD rats (250-300 g) were implanted with telemetric probes fixed to the skull to record cortical electroencephalogram (EEG), and with telemetric probes fixed to the skeletal muscles of the neck to record electromyogram (neck EMG), and allowed to recover for 3 weeks to re-establish normal sleep patterns. Rats were administered with example 100 (3, 10 and 30 mg/kg, po) or vehicle (80% v/v PEG400, 20% v/v Cremophor EL, 2 ml/kg) at Circadian Time (CT) 18, six hours after lights off. EEG and neck EMG traces were recorded for 5 hours after treatment and analysed to determine time spent awake and in NREM sleep and REM sleep.

preclinical sleep models = details: in vivo; cited from earlier work
[2] = test system: patients with primary insomnia; details: Phase II; cited from earlier work
[3] = test system: primary insomnia patients; details: Phase IIb study; cited from earlier work
[4] = 3 mg/kg po at CT18, ANOVA over 3 hours post-treatment

Compound: COc1cc(N2C(=O)N(Cc3c(F)cc(F)cc3F)c3ncccc3S2(=O)=O)cnc1OC [Example 100, 2-(5,6-Dimethoxypyridin-3-yl)-4-(2,4,6-trifluorobenzyl)-2H-pyrido[2,3-e][1,2,4]thiadiazin-3(4H)-one 1,1-dioxide]
- Ki (human Orexin-2 receptor): 2.45 nM
- ED50 ([1]; rat, inferred from 57% occupancy at 1 mg/kg, read-out: ED50 value of orexin-2 receptor occupancy (suggested from single dose)): < 1 mg/kg
- receptor occupancy at 1 mg/kg ([1]; rat, male Sprague Dawley rats, 1 mg/kg po, 1 h post-dose): 57%
- NREM sleep (rat CT18 sleep model; [4]): statistically significant increases
- REM sleep (rat CT18 sleep model; [4]): statistically significant increases
- time spent awake (rat CT18 sleep model; [4]): statistically significant decrease

Compound: COc1cc(N2C(=O)N(Cc3c(F)cc(F)cc3F)c3ccccc3S2(=O)=O)cnc1OC [Example 145, 2-(5,6-Dimethoxypyridin-3-yl)-4-(2,4,6-trifluorobenzyl)-2H-1,2,4-benzothiadiazin-3(4H)-one 1,1-dioxide]
- Ki (human Orexin-2 receptor): 4.68 nM
- occupancy of cortical orexin-2 receptors, dose dependence ([1]; male Sprague Dawley rats, 0.3-10 mg/kg po, 1 h post-dose): dose dependent manner
- ED50 ([1]; rat, male Sprague Dawley rats, 0.3-10 mg/kg, 1 h post-dose, estimated, read-out: ED50 of cortical orexin-2 receptor occupancy): 5.8 mg/kg

Compound: Cc1ccc(-c2ncccn2)c(C(=O)N2C[C@H](COc3ccc(F)cn3)CC[C@H]2C)c1 [MK-6096]
- efficacy in preclinical sleep models (preclinical sleep models): shows efficacy

Compound: CNC(=O)[C@@H](c1ccccc1)N1CCc2cc(OC)c(OC)cc2[C@@H]1CCc1ccc(C(F)(F)F)cc1 [almorexant]
- sleep efficiency [2]: dose-dependently increased

Compound: Cc1ccc(-n2nccn2)c(C(=O)N2CCN(c3nc4cc(Cl)ccc4o3)CC[C@H]2C)c1 [suvorexant]
- sleep efficiency [3]: increased

Compound: Cc1ccc(-c2nc3ccc(C)cn3c2CC(=O)N(C)C)cc1 [zolpidem, reference compound]
- NREM latency (rat CT18 sleep model; positive control, CT18): decrease
- NREM sleep (rat CT18 sleep model; positive control, CT18): increase
- time spent awake (rat CT18 sleep model; positive control, CT18): decrease
